Experimental data reported in US9580390B2, “Indazole compounds as kinase inhibitors and method of treating cancer with same” (University Health Network, priority 2011, dated 2017).
Where two headings read alike, the source gives them in different places.

Columns and labels:
[1] = target: T1, human TTK (Homo sapiens, UniProt P33981); assay: TTK inhibition assay (indirect ELISA); type: biochemical; conditions: read-out: TTK IC50 Range
T1 construct: amino terminal GST fusion of full length human TTK; purchased Invitrogen
T1 sequence (P33981 1-857): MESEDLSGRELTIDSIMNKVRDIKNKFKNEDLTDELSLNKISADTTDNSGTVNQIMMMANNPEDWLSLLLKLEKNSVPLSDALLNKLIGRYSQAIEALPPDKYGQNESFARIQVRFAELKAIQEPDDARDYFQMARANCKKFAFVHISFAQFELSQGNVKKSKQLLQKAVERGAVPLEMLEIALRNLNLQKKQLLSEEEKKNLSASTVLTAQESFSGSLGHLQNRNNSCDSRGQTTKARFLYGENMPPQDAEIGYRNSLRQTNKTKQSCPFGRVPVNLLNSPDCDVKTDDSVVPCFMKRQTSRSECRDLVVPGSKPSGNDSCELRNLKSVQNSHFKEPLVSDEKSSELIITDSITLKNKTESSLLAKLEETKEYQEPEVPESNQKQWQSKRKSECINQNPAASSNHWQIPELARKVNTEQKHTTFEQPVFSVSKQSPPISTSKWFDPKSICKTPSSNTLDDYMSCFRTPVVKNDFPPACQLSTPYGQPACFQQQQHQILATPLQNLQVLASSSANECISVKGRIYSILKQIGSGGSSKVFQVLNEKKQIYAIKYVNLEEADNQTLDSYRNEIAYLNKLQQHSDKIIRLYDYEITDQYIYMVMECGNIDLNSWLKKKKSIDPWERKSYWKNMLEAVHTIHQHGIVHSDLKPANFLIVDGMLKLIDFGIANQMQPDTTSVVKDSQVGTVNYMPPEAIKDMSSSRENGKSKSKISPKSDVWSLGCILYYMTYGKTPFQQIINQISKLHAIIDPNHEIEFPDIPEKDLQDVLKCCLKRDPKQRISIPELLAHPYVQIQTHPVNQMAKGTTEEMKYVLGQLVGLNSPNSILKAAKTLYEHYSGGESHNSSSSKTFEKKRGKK

[2] = tested on: Breast cancer cells; assay: Cancer cell line growth inhibition (SRB assay); type: cell-based; conditions: Homo sapiens; MDA-MB-468; read-out: Cancer Cell Line GI50 Range MDA-MB-468
[3] = tested on: colon cancer cells (HCT116); assay: Cancer cell line growth inhibition (SRB assay); type: cell-based; conditions: Homo sapiens, HCT-116, read-out: Cancer Cell Line GI50 Range HCT116
[4] = tested on: ovarian cancer cells (PA-1); assay: Cancer cell line growth inhibition (SRB assay); type: cell-based; conditions: read-out: Cancer Cell Line GI50 Range PA-1
[5] = tested on: TICs (Colon 12); assay: Colon tumor-initiating cell growth inhibition (Alamar Blue); type: cell-based; conditions: 216 h, 9 days, read-out: Tumor Initiating Cell GI50 Range Colon 12
[6] = tested on: TICs (Ovarian 2393A); assay: Ovarian tumor-initiating cell growth inhibition (Alamar Blue); type: cell-based; conditions: 144 h, 6 days, read-out: Tumor Initiating Cell GI50 Range Ovarain 2393A

| IC50 [1] | GI50 [2] | GI50 [3] | GI50 ([4]; Homo sapiens, PA-1) | GI50 ([5]; Colon 12 TICs) | GI50 ([6]; Ovarian 2393A TICs) | GI50 ([3]; HCT116 colon cancer cells, SRB assay) | GI50 ([4]; PA-1 ovarian cancer cells, SRB assay) | GI50 ([5]; colon TICs, Alamar Blue) | GI50 ([6]; ovarian TICs, Alamar Blue) | Compound |
| --- | --- | --- | --- | --- | --- | --- | --- | --- | --- | --- |
| < 0.1 µM | 0.1 to 0.5 µM | 0.1 to 0.5 µM | 0.1 to 0.5 µM | > 0.5 µM | 0.1 to 0.5 µM | – | – | – | – | CC(C)[C@H](NC(=O)c1ccc2[nH]nc(-c3ccc(OC4CCN(C[C@@H](O)C(F)(F)F)CC4)cc3)c2c1)c1ccccc1Cl [Example A228, N-((S)-1-(2-chlorophenyl)-2-methylpropyl)-3-(4-((1-((R)-3,3,3-trifluoro-2-hydroxypropyl)piperidin-4-yl)oxy)phenyl)-1H-indazole-5-carboxamide] |
| < 0.1 µM | > 0.5 µM | 0.1 to 0.5 µM | 0.1 to 0.5 µM | > 0.5 µM | > 0.5 µM | – | – | – | – | CN1CCC(Oc2ccc(-c3n[nH]c4ccc(C(=O)NC(c5ccccn5)C5CC5)cc34)cc2S(C)(=O)=O)CC1 (stereo not shown) [Example A245, N-(cyclopropyl(pyridin-2-yl)methyl)-3-(4-((1-methylpiperidin-4-yl)oxy)-3-(methylsulfonyl)phenyl)-1H-indazole-5-carboxamide] |
| < 0.1 µM | > 0.5 µM | 0.1 to 0.5 µM | < 0.1 µM | > 0.5 µM | > 0.5 µM | – | – | – | – | CN1CCC(Oc2ccc(-c3n[nH]c4ccc(C(=O)NC(c5ccccc5)C5CC5)cc34)cc2S(C)(=O)=O)CC1 (stereo not shown) [Example A246, N-(cyclopropyl(phenyl)methyl)-3-(4-((1-methylpiperidin-4-yl)oxy)-3-(methylsulfonyl)phenyl)-1H-indazole-5-carboxamide] |
| < 0.1 µM | 0.1 to 0.5 µM | < 0.1 µM | < 0.1 µM | 0.1 to 0.5 µM | 0.1 to 0.5 µM | – | – | – | – | CN1CCC2(CC1)CC(=O)c1cc(-c3n[nH]c4ccc(C(=O)N[C@H](c5ccccn5)C5CC5)cc34)ccc1O2 [Example A257, (S)-N-(cyclopropyl(pyridin-2-yl)methyl)-3-(1′-methyl-4-oxospiro[chroman-2,4′-piperidin]-6-yl)-1H-indazole-5-carboxamide] |
| < 0.1 µM | < 0.1 µM | < 0.1 µM | < 0.1 µM | 0.1 to 0.5 µM | < 0.1 µM | – | – | – | – | CC(C)[C@H](NC(=O)c1ccc2[nH]nc(-c3ccc(OC4CCN(C)CC4)c(S(C)(=O)=O)c3)c2c1)c1ccccc1Cl [Example A259, (S)-N-(1-(2-chlorophenyl)-2-methylpropyl)-3-(4-((1-methylpiperidin-4-yl)oxy)-3-(methylsulfonyl)phenyl)-1H-indazole-5-carboxamide] |
| < 0.1 µM | < 0.1 µM | < 0.1 µM | < 0.1 µM | 0.1 to 0.5 µM | < 0.1 µM | – | – | – | – | CC1=CC2(CCN(C)CC2)Oc2ccc(-c3n[nH]c4ccc(C(=O)N[C@H](c5ccccn5)C5CC5)cc34)cc21 [Example A260, (S)-N-(cyclopropyl(pyridin-2-yl)methyl)-3-(1′,4-dimethylspiro[chromene-2,4′-piperidin]-6-yl)-1H-indazole-5-carboxamide] |
| < 0.1 µM | < 0.1 µM | < 0.1 µM | < 0.1 µM | 0.1 to 0.5 µM | 0.1 to 0.5 µM | – | – | – | – | O=C(N[C@H](c1ccccn1)C1CC1)c1ccc2[nH]nc(-c3ccc4c(c3)C(=O)CC3(CCN(C5COC5)CC3)O4)c2c1 [Example A264, (S)-N-(cyclopropyl(pyridin-2-yl)methyl)-3-(1′-(oxetan-3-yl)-4-oxospiro[chroman-2,4′-piperidin]-6-yl)-1H-indazole-5-carboxamide] |
| < 0.1 µM | < 0.1 µM | < 0.1 µM | < 0.1 µM | < 0.1 µM | < 0.1 µM | – | – | – | – | O=C(N[C@H](c1ccccc1F)C1CC1)c1ccc2[nH]nc(-c3ccc(N4CCN(C5COC5)CC4)cc3)c2c1 [Example A269, (S)-N-(cyclopropyl(2-fluorophenyl)methyl)-3-(4-(4-(oxetan-3-yl)piperazin-1-yl)phenyl)-1H-indazole-5-carboxamide] |
| < 0.1 µM | < 0.1 µM | < 0.1 µM | < 0.1 µM | < 0.1 µM | < 0.1 µM | – | – | – | – | CC(C)[C@H](NC(=O)c1ccc2[nH]nc(-c3ccc(OC4CCN(C)CC4)cc3)c2c1)c1ccccc1Cl [Example A273, (S)-N-(1-(2-chlorophenyl)-2-methylpropyl)-3-(4-((1-methylpiperidin-4-yl)oxy)phenyl)-1H-indazole-5-carboxamide] |

Further lines, the compound ahead of its results:

| Compound | IC50 [1] | GI50 [2] | GI50 [3] | GI50 ([4]; Homo sapiens, PA-1) | GI50 ([5]; Colon 12 TICs) | GI50 ([6]; Ovarian 2393A TICs) | GI50 ([3]; HCT116 colon cancer cells, SRB assay) | GI50 ([4]; PA-1 ovarian cancer cells, SRB assay) | GI50 ([5]; colon TICs, Alamar Blue) | GI50 ([6]; ovarian TICs, Alamar Blue) |
| --- | --- | --- | --- | --- | --- | --- | --- | --- | --- | --- |
| CN1[C@@H]2CC[C@H]1C[C@@H](Oc1ccc(-c3n[nH]c4ccc(C(=O)NC(c5ccccn5)C5CCCC5)cc34)cc1)C2 (stereo partly drawn) [Example A244, N-(cyclopentyl(pyridin-2-yl)methyl)-3-(4-(((1R,3R,5S)-8-methyl-8-azabicyclo[3.2.1]octan-3-yl)oxy)phenyl)-1H-indazole-5-carboxamide] | < 0.1 µM | 0.1 to 0.5 µM | < 0.1 µM | < 0.1 µM | 0.1 to 0.5 µM | 0.1 to 0.5 µM | – | – | – | – |
| CC1=CC2(CCN(C)CC2)Oc2ccc(-c3n[nH]c4ccc(C(=O)N[C@H](c5ccccc5Cl)C(C)C)cc34)cc21 [Example A258, (S)-N-(1-(2-chlorophenyl)-2-methylpropyl)-3-(1′,4-dimethylspiro[chromene-2,4′-piperidin]-6-yl)-1H-indazole-5-carboxamide] | < 0.1 µM | < 0.1 µM | < 0.1 µM | < 0.1 µM | < 0.1 µM | < 0.1 µM | – | – | – | – |
| O=C(N[C@H](c1ccccc1F)C1CC1)c1ccc2[nH]nc(-c3ccc(N4C5CCC4CC(O)C5)cc3)c2c1 (stereo partly drawn) [Example A265, N-((S)-cyclopropyl(2-fluorophenyl)methyl)-3-(4-((1R,3R,5S)-3-hydroxy-8-azabicyclo[3.2.1]octan-8-yl)phenyl)-1H-indazole-5-carboxamide] | < 0.1 µM | < 0.1 µM | < 0.1 µM | < 0.1 µM | < 0.1 µM | < 0.1 µM | – | – | – | – |
| O=C(N[C@@H](c1ccccc1F)C1CC1)c1ccc2[nH]nc(-c3ccc(N4C5CCC4CC(O)C5)cc3)c2c1 (stereo partly drawn) [Example A266, N-((R)-cyclopropyl(2-fluorophenyl)methyl)-3-(4-((1R,3R,5S)-3-hydroxy-8-azabicyclo[3.2.1]octan-8-yl)phenyl)-1H-indazole-5-carboxamide] | < 0.1 µM | < 0.1 µM | < 0.1 µM | < 0.1 µM | < 0.1 µM | < 0.1 µM | – | – | – | – |
| CC(C)C(NC(=O)c1ccc2[nH]nc(-c3ccc(O[C@H]4C[C@H]5CC[C@@H](C4)N5C)cc3)c2c1)c1ccccc1Cl (stereo partly drawn) [Example A279, N-(1-(2-chlorophenyl)-2-methylpropyl)-3-(4-(((1R,3R,5S)-8-methyl-8-azabicyclo[3.2.1]octan-3-yl)oxy)phenyl)-1H-indazole-5-carboxamide] | < 0.1 µM | < 0.1 µM | < 0.1 µM | < 0.1 µM | 0.1 to 0.5 µM | 0.1 to 0.5 µM | – | – | – | – |
| CN1[C@@H]2CC[C@H]1C[C@@H](Oc1ccc(-c3n[nH]c4ccc(C(=O)NC(c5ccsc5)C5CCC5)cc34)cc1)C2 (stereo partly drawn) [Example A283, N-(cyclobutyl(thiophen-3-yl)methyl)-3-(4-(((1R,3R,5S)-8-methyl-8-azabicyclo[3.2.1]octan-3-yl)oxy)phenyl)-1H-indazole-5-carboxamide] | < 0.1 µM | 0.1 to 0.5 µM | < 0.1 µM | < 0.1 µM | 0.1 to 0.5 µM | 0.1 to 0.5 µM | – | – | – | – |
| O=C(NCC1(N2CCOCC2)CCCCC1)c1ccc2[nH]nc(-c3ccc(N4CCN(C5COC5)CC4)cc3)c2c1 [Example A500, N-((1-morpholinocyclohexyl)methyl)-3-(4-(4-(oxetan-3-yl)piperazin-1-yl)phenyl)-1H-indazole-5-carboxamide] | < 0.1 µM | – | < 0.1 µM | < 0.1 µM | < 0.1 µM | < 0.1 µM | – | – | – | – |
| O=CN1CCC(Oc2ccc(-c3n[nH]c4ccc(C(=O)NCC5(N6CCOCC6)CCCCC5)cc34)cc2)CC1 [Example A504, 3-(4-((1-formylpiperidin-4-yl)oxy)phenyl)-N-((1-morpholinocyclohexyl)methyl)-1H-indazole-5-carboxamide] | < 0.1 µM | – | – | – | – | – | < 0.1 µM | 0.1 to 0.5 µM | 0.1 to 0.5 µM | 0.1 to 0.5 µM |
